Experimental data: US20230220021A1, “CYCLIC PEPTIDE INHIBITORS OF PSD-95 AND USES THEREOF” (University of Copenhagen, priority 2020, published 2023)
Where a SMILES comes first, the peptide text is derived from it. [ ]: non-standard residue; d: D form.

Target: T1, PSD-95-PDZ2 (Homo sapiens, UniProt P78352)
T1 construct: 7xHis (N); made in house; host or cells: Escherichia coli B21 pLys (for the mutants, 'as previously described')
Experiment: Fluorescence polarization (FP) competition assay against cyclic nNOS TAMRA probe
Format: binding
Conditions: for Relative Ki (Ki mut/Ki WT): FP inhibition constant normalized to WT value
Protocol: Fluorescence polarization (FP). FP assays were performed in a 384-well plate format. Fluorescence polarization was measured using a Safire 2 plate reader. The instrument Z-factor was optimized for each assay. The G-factor was calibrated to an initial milli polarization value of 20. The wavelength for the cyclic nNOS β-hairpin TAMRA probe was: ex: 530 nm and em: 580 nm. Every measurement was performed in NaPI 50 mM, 50 mM NaCl and 1% BSA at pH 7.2, 25° C. […] The curves were done in triplicates. Then, the polarization was fitted into a one-site binding model using Prism software 8.0 (GraphPad), from which the Kd can be measured. […] The mili polarization (mP) values were plotted as a function of peptide concentration and fitted to a sigmoidal dose-response curve using Prism software 8.0 (GraphPad). The Ki values were calculated according to Nikolovska-Coleska Z. et al.^40-41

T1 sequence (P78352 160-246 limits assumed): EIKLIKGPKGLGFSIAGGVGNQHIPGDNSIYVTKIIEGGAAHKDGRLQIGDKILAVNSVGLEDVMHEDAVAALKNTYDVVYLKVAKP

Compound: CC[C@H](C)[C@@H]1NC(=O)[C@H]([C@@H](C)O)NC(=O)[C@H](CCCCN)NC(=O)[C@@H]2CCCN2C(=O)[C@H]([C@@H](C)O)NC(=O)CNC(=O)[C@H](CC(=O)O)NC(=O)CNC(=O)[C@H]([C@@H](C)O)NC(=O)[C@H](Cc2ccccc2)NC(=O)[C@H]([C@@H](C)O)NC(=O)[C@H]([C@@H](C)O)NC(=O)[C@H](CCC(=O)O)NC(=O)[C@H](CC(C)C)NC(=O)[C@H](Cc2c[nH]cn2)NC(=O)[C@H]([C@@H](C)O)NC(=O)[C@H](CCC(N)=O)NC(=O)CNC(=O)[C@H]2CCCN2C(=O)[C@H](CCC(N)=O)N(C)C(=O)[C@H]([C@@H](C)O)NC(=O)[C@H](C(C)C)NC(=O)[C@H](CCCNC(=N)N)NC1=O [compound 102]
- Ki (FP competition, cyclic nNOS TAMRA probe, mean of triplicates, N.B. = not binding, read-out: Ki): 2200 nM

Compound: CC[C@H](C)[C@@H]1NC(=O)[C@H]([C@@H](C)O)NC(=O)[C@H](CCCCN)NC(=O)[C@@H]2CCCN2C(=O)[C@H]([C@@H](C)O)NC(=O)CNC(=O)[C@H](CC(=O)O)NC(=O)CNC(=O)[C@H]([C@@H](C)O)NC(=O)[C@H](Cc2ccccc2)NC(=O)[C@H]([C@@H](C)O)NC(=O)[C@H]([C@@H](C)O)NC(=O)[C@H](CCC(=O)O)NC(=O)[C@H](CC(C)C)NC(=O)[C@H](Cc2c[nH]cn2)NC(=O)[C@H]([C@@H](C)O)NC(=O)[C@H](CCC(N)=O)NC(=O)CNC(=O)[C@H]2CCCN2C(=O)[C@H](CCC(N)=O)NC(=O)[C@H]([C@@H](C)O)NC(=O)[C@H](Cc2ccc(O)cc2)NC(=O)[C@H](CCCNC(=N)N)NC1=O [compound 47] (cyclo(THLETTFTGDGTPKTIRYTQ[dP]GQ))
- Relative Ki (Ki mut/Ki WT): 0.85

Compound: Cyclo-(THLEAlloTTFTGDGTPKTIRVTQpG(Qα)) (THLEXTFTGDGTPKTIRVTQPGQ; cyclic; allo-threonine at 109; D-proline; cyclized peptide; (5)..(5) X is AlloT; (21)..(21) is D-AA) [SEQ ID NO: 80]
- effect on interaction with PSD-95-PDZ2 (in words) (FP competition): abolish the interaction

Compound: CC[C@H](C)[C@@H]1NC(=O)[C@H](CO)NC(=O)[C@H](CCCCN)NC(=O)[C@@H]2CCCN2C(=O)[C@H]([C@@H](C)O)NC(=O)CNC(=O)[C@H](CC(=O)O)NC(=O)CNC(=O)[C@H]([C@@H](C)O)NC(=O)[C@H](Cc2ccccc2)NC(=O)[C@H]([C@@H](C)O)NC(=O)[C@H]([C@@H](C)O)NC(=O)[C@H](CCC(=O)O)NC(=O)[C@H](CC(C)C)NC(=O)[C@H](Cc2c[nH]cn2)NC(=O)[C@H]([C@@H](C)O)NC(=O)[C@H](CCC(N)=O)NC(=O)CNC(=O)[C@H]2CCCN2C(=O)[C@H](CCC(N)=O)NC(=O)[C@H]([C@@H](C)O)NC(=O)[C@H](C(C)C)NC(=O)[C@H](CCCNC(=N)N)NC1=O [compound 50] (cyclo(THLETTFTGDGTPKSIRVTQ[dP]GQ))
- Relative Ki (Ki mut/Ki WT): 4.79

Compound: CC[C@H](C)[C@@H]1NC(=O)[C@H]([C@@H](C)O)NC(=O)[C@H](CCCCN)NC(=O)[C@@H]2CCCN2C(=O)[C@H]([C@@H](C)O)NC(=O)CNC(=O)[C@H](CC(=O)O)NC(=O)CNC(=O)[C@H]([C@@H](C)O)NC(=O)[C@H](Cc2ccccc2)NC(=O)[C@H]([C@@H](C)O)NC(=O)[C@H]([C@@H](C)O)NC(=O)[C@H](CCC(=O)O)NC(=O)[C@H](CC(C)C)NC(=O)[C@H](Cc2c[nH]cn2)NC(=O)[C@H]([C@@H](C)O)NC(=O)[C@H](CCC(N)=O)NC(=O)CNC(=O)[C@H]2CCCN2C(=O)[C@H](CCC(N)=O)NC(=O)[C@H](CCCNC(=N)N)NC(=O)[C@H](C(C)C)NC(=O)[C@H](CCCNC(=N)N)NC1=O [compound 44] (cyclo(THLETTFTGDGTPKTIRVRQ[dP]GQ))
- Relative Ki (Ki mut/Ki WT): 1.06
